# In patent US20240285773A1, “METHODS OF TREATING MYELODYSPLASTIC SYNDROME AND MONITORING THE TREATMENT” (Geron Corporation, priority 2023, published 2024):
# Values joined by “and” are separate entries in the source; they are usually repeats but may differ in a detail not shown here. Identical values can stand only once. [nps] = N3'→P5' thiophosphoramidate linkage; {Palm} = palmitoyl lipid
# What was measured:
# [1] = tested on: RBC transfusion-dependent patients with IPSS low or intermediate-1 risk MDS; test: Phase 3 trial: hematologic improvement-erythroid (HI-E) and hemoglobin; type: in vivo, human
# Description: (§1) The primary end point was rate of RBC-TI for 8 consecutive weeks or longer. Key secondary end points included rate of 24-week TI, duration of TI, and the rate of hematologic response (hematologic improvement-erythroid [HI-E], based on modified International Working Group [IWG] 2006 criteria, and HI-E per revised IWG 2018). Additional secondary end points included relative change in number of RBC transfusions received by patients, relative change in hemoglobin, and safety. The changes in mutational status and in patient-reported fatigue over time (assessed by the Functional Assessment of Chronic Illness Therapy [FACIT] Fatigue Scale) were exploratory end points. Subgroup analyses were performed including baseline presence or absence of RS, prior RBC transfusion burden (≥4 to ≤6 or >6 RBC units/8-weeks during a 16-week period prior to randomization), and low or intermediate-1 IPSS risk categories. Subgroup analyses were also performed, including baseline mutation status as well as telomerase activity (TA), telomere lengths (TL), and human telomerase reverse transcriptase (hTERT) levels. Peripheral blood hematology, bone marrow evaluation, mutation assessment, and cytogenetic evaluation were performed centrally and responses assessed by an independent review committee (IRC). Rate of 1-year RBC-TI was reported as a post hoc analysis.
# Key Secondary End Point Rate of hematologic improvement, including HI-E: per modified IWG 2006.
# Changes over time in transfusion units and hemoglobin levels were compared by a mixed model for repeated measures with weeks since randomization, prior transfusion burden, minimum hemoglobin in the 8 weeks prior to first dose (for hemoglobin), and treatment arm as the independent variables with autoregressive moving average covariance structure.
# [2] = tested on: patients with baseline cytogenetic abnormality; test: Phase 3 trial: cytogenetic response per IWG 2006; type: in vivo, human
# Description: as §1
# As noted above, patients with heavily RBC-TD-ESA relapsed/refractory or ineligible non-del(5q) LR-MDS naive to lenalidomide and hypomethylating agents (len/HMA) received 2-hr infusion of imetelstat 7.5 mg/kg or placebo every 4 weeks. An independent review committee assessed abnormal cytogenetic profiles of bone marrow samples taken pre- and every 24 weeks post-treatment to assess cytogenetic response of complete or partial remission. Of the 178 randomized patients, 22.0% in the imetelstat group and 21.7% in the placebo group had baseline cytogenetic abnormalities and post-treatment samples.
# [3] = 26 patients with baseline abnormality
# [4] = ≥1-year TI responders with baseline abnormality (7)
substance,measurement,setting,value
"Imetelstat: first-in-class telomerase inhibitor; synthetic lipid-conjugated 13-mer oligonucleotide N3′→P5′-thiophosphoramidate (TAGGGTTAGACAA; all [nps], 5' {Palm}, sugars by position and methylation of C not given here)",Median hemoglobin peak,[1]; 8-week TI responders,11.3 g/dL
same,Median hemoglobin increase from pretreatment to peak,"[1]; 8-week TI responders, during TI period",3.55 g/dL and 3.6 g/dL
same,"Major HI-E response, % difference vs placebo",[1]; HTB subjects,30.9%
same,"Minor HI-E response, % difference vs placebo",[1]; HTB subjects,34.8%
same,"Major HI-E response (16-week RBC-TI), patients",[1]; HTB subjects (97),30 No. of patients
same,"Minor HI-E response (50% RBC units reduction in 16 weeks), patients",[1]; HTB subjects (97),43 No. of patients
same,"HI-E response (16-week RBC-TI), % difference vs placebo",[1]; LTB subjects,11.1%
same,"HI-E response (16-week RBC-TI), patients",[1]; LTB subjects (21),7 No. of patients
same,"HI-E per IWG 2006, patients",[1]; N=118,75 n
same,"HI-E per IWG 2018, patients",[1]; N=118,50 n
same,"Increase in hemoglobin ≥1.5 g/dL for ≥8 wk, patients",[1]; N=118,40 n
same,Transfusion reduction by 50%/16 weeks rate,[1]; N=118,43.2%
same,"Transfusion reduction by 50%/16 weeks, patients",[1]; N=118,51 n
same,"Transfusion reduction by ≥4 units/8 wk, patients",[1]; N=118,71 n
same,HI-E per IWG 2018 rate,"[1]; N=118, listed as imetelstat",42% and 42.4%
same,Increase in hemoglobin ≥1.5 g/dL for ≥8 wk rate,"[1]; N=118, listed as imetelstat",34%
same,"HI-E IWG 2006, % difference vs placebo",[1]; in vivo,"11.9%,"
same,"HI-E IWG 2018, % difference vs placebo",[1]; in vivo,"29.0%,"
same,"Increase in hemoglobin ≥1.5 g/dL for ≥8 wk, % difference vs placebo",[1]; in vivo,23.9%
same,"Transfusion reduction by ≥4 units/8 wk, % difference vs placebo",[1]; in vivo,"10.2%,"
same,Median increase in hemoglobin during the longest TI interval,[1]; ≥1-year TI responders,5.2 g/dL and 5.18 g/dL
same,Cytogenetic CR or PR,[2]; [3],(35) %
same,"Cytogenetic CR or PR, patients",[2]; [3],9 N
same,Cytogenetic complete response (CR),[2]; [3],(19) %
same,"Cytogenetic complete response (CR), patients",[2]; [3],5 N
same,Cytogenetic partial response (PR),[2]; [3],(15) %
same,"Cytogenetic partial response (PR), patients",[2]; [3],4 N
same,Cytogenetic response not evaluable,[2]; [3],(46) %
same,"Cytogenetic response not evaluable, patients",[2]; [3],12 N
same,Does not meet cytogenetic CR or PR criteria,[2]; [3],(19) %
same,"Does not meet cytogenetic CR or PR criteria, patients",[2]; [3],5 N
same,Cytogenetic CR or PR,"[2]; 26 patients with baseline abnormality, listed as imetelstat",35% and 34.6%
same,"Cytogenetic CR or PR, % difference vs placebo",[2]; in vivo,"19% (−16, 44)"
same,"Did not meet the response criteria, patients",[2]; [4],1 patient
same,cCR,[2]; [4],57%
same,"cCR, patients",[2]; [4],4 patients
same,cPR,[2]; [4],29%
same,"cPR, patients",[2]; [4],2 patients
